Reference: patent US8513182B2, “Natural polypeptides for oral health care” (priority 2007, dated 2013)
Like-named read-outs stand apart in the source and are kept apart here. Ends that are not written are not given here.

What was measured:
bacterial plaque = settings: in vitro and in vivo; cited from earlier work
Streptococcus mutans [1] = test: disk diffusion assay on confluent S. mutans culture; format: cell-based; settings: for antibacterial activity (zone of inhibition) against S. mutans: FIG. 4, lactoferrin, statherin and fusion peptides on disk
From the text: In all panels the circle is a filter paper disk impregnated with different agents (PBS=phosphate buffered saline which is a control); LF “R”=the 11 mer of lactoferrin with arginine (R) in amino acid position 29; LF “K” the 11 mer of lactoferrin with lysine (K) in amino acid position 29. The disk containing a standard concentration of one of the agents is placed over a confluent culture of Streptococcus mutans.
In all panels the circle is a disk impregnated with different agents. The disk is placed over a confluent culture of Streptococcus mutans. […] Panel top left: Lactoferrin (timer) where the lysine is present. […] Middle and top right panel are the two statherin peptides, a 6 mer and a 15 mer. […] Panel bottom left: lactoferrin 11 mer noted as LF fused to the Statherin 6 mer. […] Panel bottom right: Lactoferrin 11 mer noted as LF fused to Statherin 15 mer. […] The two panels on the bottom show the level of interference when the LF is added to the two Statherins. The activity of the LF when the smaller Statherin peptide is fused to it is greater as compared to when the larger peptide is fused to the LF.
The first was a disk diffusion screening assay we developed in our laboratory. In that assay we grew an overnight culture of S. mutans in a broth consisting of trypticase soy and 20% sucrose added. Cells were grown overnight and then streaked to confluence on Mitis Salivarius Bacitracin (MSB) agar. In addition we took a 25 cm sterile filter paper disk and added 200 ul of either whole saliva, the saliva containing the lysine or the arginine variant of lactoferrin, allowed this saliva to dry onto the filter paper for 1 hour and then placed the filter paper containing the added protein over the center of the confluent culture of S. mutans on the MSB agar. […] This assay was used to screen for potential antimicrobial activity.
The disk diffusion assay allows for specific proteins to be added to a filter paper disk whereby the protein can then diffuse into the agar to determine antimicrobial activity. The following peptides were added to the disk; R=arginine form of Lf (FIG. 1(a)). K=lysine form of Lf (FIG. 1(a). PBS=phosphate buffered saline which is used as the control solution and to which is added either the R form or K form of Lf. In FIG. 1 below we added R form, or the K form at a concentration of 1 ug/ml to 200 ul of PBS and then added that to the surface of a 25 cm filter paper strip and allowed the strip to dry for 1 hour. We then streaked a culture of S. mutans to confluence onto a plate of trypicase soy agar containing 20% sucrose and then placed the dried disk over the center of the plate. The cultures were allowed to grow in an incubator set at 37° C. and then evaluated either at 24 or 48 hours after inoculation. […] No zone was seen on disk R/PBS or R/Saliva, where the arginine variant was substituted for the lysine variant (FIG. 3). The R and K Form of LF peptide was added at a concentration of about 15 ug/ml.

Streptococcus mutans [2] = test: killing of Streptococcus mutans by synthetic lactoferrin peptide; format: cell-based
oral bacteria = settings: bacteria grown in a broth media, in-vitro; cited from earlier work
bacteria adhering to SHA = settings: SHA treated with drug, washed, placed in a culture of bacteria; cited from earlier work
S. mutans = settings: literature (Gibbons and Hay 1989; Shimotoyodeme et al 2006), cited from earlier work

In the case of `[H]/N=C(\N/C(=N/[H])NCCCCCCNC(=N)NC(=N)Nc1ccc(Cl)cc1)Nc1ccc(Cl)cc1` [chlorhexidine], the “bacterial plaque attachment to teeth” value (bacterial plaque) is listed as “reduce bacterial plaque attachment to teeth”.
For “LF “K”: the 11 mer of lactoferrin with lysine (K) in amino acid position 29 (FQWQRNMRKVR; Active form of synthetic peptide LF11 based on human lactoferrin peptide)”, the “zone of inhibition of S. mutans growth around disk” value (Streptococcus mutans [1]; FIG. 3, peptide in PBS dried on filter paper disk, 37° C., 24 or 48 hours, listed as K) was “zone of inhibition”, the “zone of inhibition of S. mutans growth around disk” value (Streptococcus mutans [1]; FIG. 3, peptide in PBS dried on filter paper disk, 37° C., 24 or 48 hours, listed as lysine variant of Lactoferrin) was “clear zone” and the “antibacterial activity (zone of inhibition) against S. mutans” value (Streptococcus mutans [1]) was “inhibits the growth of S. mutans”. The “zone of inhibition of S. mutans growth around disk” value (Streptococcus mutans [1]; peptide suspended in normal saliva, dried on filter paper disk) was “zone of inhibition” and the “killing of Streptococcus mutans” value (Streptococcus mutans [2]) was “kills Streptococcus mutans”.
For Penicillin, the “concentration effective against oral bacteria” value (oral bacteria) is given as 1 µg/mL and the “adherence of bacteria to treated SHA” value (bacteria adhering to SHA) is given as “no effect”.
For “ST6: statherin peptide, a 6 mer (DSSEEK; ends and bridges not checked; UniProt P02808 20-25, looked up, fragment)”, the “antibacterial activity (zone of inhibition) against S. mutans” value (Streptococcus mutans [1]) is given as “do not have any antimicrobial activity”, the “antibacterial activity (zone of inhibition) against S. mutans” value (Streptococcus mutans [1]; listed as Statherin 6 mer) is given as “no zone of inhibition” and the “S. mutans attachment / binding to the tooth surface” value (shortened to “S. mutans attachment / binding”) (S. mutans) is given as “also has this capacity”.
For “STAT-LF 6: fusion protein: lactoferrin 11 mer (LF) fused to the Statherin 6 mer (DDDEEKFQWQRNMRKVR; Synthetic fusion peptide STAT-LF6)”, the “antibacterial activity (zone of inhibition) against S. mutans” value (Streptococcus mutans [1]; listed as LF and the Statherin 6 mer) was “most active fusion peptide”, the “antibacterial activity (zone of inhibition) against S. mutans” value (Streptococcus mutans [1]; listed as LF fused to the Statherin 6) was “retains the activity of the Lactoferrin 11 mer” and the “antibacterial activity (zone of inhibition) against S. mutans” value (Streptococcus mutans [1]; listed as LF fused to the Statherin 6 mer) was “retains the activity of the Lactoferrin 11 mer”.
In the case of “Statherin: small salivary tyrosine-rich phosphoprotein containing 43 amino acids (DSSEEKFLRRIGRFGYGYGPYQPVPEQPLYPQPYQPQYQQYTF; also: phosphoprotein, sites not given here; UniProt P02808 20-62, looked up)”, the “S. mutans attachment / binding” value (S. mutans) is listed as “reduce S. mutans binding to the tooth surface” and the “S. mutans attachment / binding” value (S. mutans; listed as statherin) is listed as “inhibit S. mutans attachment”.
